Assay: gradient 5% acetonitrile 3 min, to 50% in 2 min, to 85% in 15 min, held 3 min, 100 µL/min
Conditions: column: Zorbax Extend-C18 2.1 x 50 mm; eluents: water / acetonitrile, 0.1% formic acid
Method in brief: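 Values are retention times taken from adduct peaks that software picked and an analyst inspected. The pure standards were run as mixtures of ~100 molecules on HPLC linked to a quadrupole time-of-flight mass spectrometer, in positive and negative ionization mode. A Zorbax Extend-C18 column (2.1 × 50 mm, 1.8 μm) was used at 100 μL/min with water and acetonitrile, each including 0.1% formic acid.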

| SMILES | RP-LC retention time [s] |
| --- | --- |
| Cc1onc(-c2ccc(Br)s2)c1C(=O)NCCCN1CCN(C)CC1 | 611 |
| CCCCN1CCc2nc(N3CCN(c4ccccc4F)CC3)ncc2C1 | 715 |
| CSc1ccc(CNC(=O)c2cn3cc(Cl)ccc3n2)cc1 | 895 |
| Cc1ccc(CNC(=O)c2cn3ccc(C)cc3n2)cc1 | 670 |
| CN(C)S(=O)(=O)c1ccc2nc(NC(=O)c3nc4ccccc4s3)sc2c1 | 948 |
| Cc1c(C(=O)N2CCOCC2)cnn1-c1ccc(-c2nc(C(C)(C)C)no2)cn1 | 942 |
| Cc1ccc(-n2nc(N3CCN(C(=O)C4CC4)CC3)ccc2=O)cc1C | 749 |
| COc1ccc(C(=O)NC2CCN(c3ccc(=O)[nH]n3)C2)c(OC)n1 (centres undefined) | 660 |
| CCn1nc(C)c(CCNC(=O)Nc2ccccc2C(=O)OC)c1C | 646 |
| CS(=O)(=O)N1CCC(C2CCN(Cc3ccc(C#N)cc3)C2)CC1 (centres undefined) | 597 |
| CC(C)Oc1ccc(-c2noc(CN3N=NC4C(=O)N(c5ccc6c(c5)CCC6)C(=O)C43)n2)cc1 (centres undefined) | 1180 |
| O=C(c1cccs1)N1CCCC(OCc2nc(C3CC3)no2)C1 (centres undefined) | 786 |
| Cc1nc(-c2ccc(N3CCN(C(=O)c4ccc(Cl)cc4)CC3)nc2)sc1C | 946 |
| COc1nc(N)nc2c1ncn2[C@@H]1O[C@H](CO)[C@@H](O)[C@@H]1O | 568 |
| O=C(O)COc1ccc(OCCNC[C@H](O)COc2ccccc2)cc1 | 679 |
| COc1ccccc1-c1nc(Cn2nnc(-c3nc(-c4ccc(OC(C)C)cc4)no3)c2C)c(C)o1 | 1230 |
| Cc1cc(C)c2c(N3CCOCC3)nc(C(=O)N3CCN(c4ccccc4)CC3)nc2n1 | 653 |
| CN(CC1CCOC1)C(=O)Cc1cccc(Cl)c1 (centres undefined) | 734 |
| CC(C)C(=O)N1CCN(c2nc(CN3CCOCC3)cs2)CC1 | 569 |
| COC(=O)CCC(=O)Nc1nc(-c2ccccc2)cs1 | 840 |
| CCc1nnc(-c2cccn2CC(=O)NCc2cccc(Br)c2)o1 | 835 |

| SMILES | RP-LC retention time [s] |
| --- | --- |
| Cc1ccc(CNC(=O)C2CCCN2S(=O)(=O)c2cc3c(cc2C)NC(=O)CO3)cc1 (centres undefined) | 777 |
| Cc1ccc(C(=O)N2C[C@@H]3C[C@H]2C[C@@H]3NS(=O)(=O)c2cccs2)cc1F | 827 |
| COC(=O)c1sccc1NC(=O)N1CCCn2nc(-c3ccncc3)cc2C1 | 647 |
| O=c1c2ccccc2c(-c2nc(-c3ccncc3)no2)cn1-c1cccc(F)c1 | 1050 |
| COc1ccc(OC)c(NS(=O)(=O)c2cccs2)c1 | 777 |
| Cc1ccc(Nc2c(-c3ccccc3)nc3cnccn23)c(C)c1 | 982 |
| COc1ccc(-c2nc3n(n2)C2(CCCCC2)[C@@H]2CCCC[C@@H]2N3C(=O)c2ccco2)cc1 | 1380 |
| O=C([C@@H]1C[C@H](F)CN1C(=O)c1ccc(Cl)cc1)N1CCCCC1 | 724 |
| CSCc1csc(NC(=O)COc2ccc(Cl)cc2)n1 | 883 |
| O=c1c(Cl)c(N2CCN(c3ccccn3)CC2)cnn1-c1nc2ccccc2s1 | 639 |
| COc1nn(C)cc1C(=O)Nc1cccc(-c2cn3c(n2)SCC3)c1 | 566 |
| Cc1noc(C)c1S(=O)(=O)N1CCc2c(c(-c3nnc(-c4ccccc4)o3)nn2C)C1 | 880 |
| Clc1ccc(Cl)c(-c2ccc(CNCC3CCCO3)o2)c1 (centres undefined) | 699 |
| O=C(C1CCCN(c2cnc3nccnc3c2)C1)N1CCC(Cc2ccccc2)CC1 (centres undefined) | 892 |
| CCNC(=O)c1cc(C)nc2c(C)cc(C)cc12 | 594 |
| O=c1c2cc(-c3ccccc3)nn2ccn1Cc1noc(CN2CCCC2)n1 | 646 |
| Cc1cc(N2CCN(S(=O)(=O)c3ccccc3Cl)CC2)nc(NC2CCCCC2)n1 | 838 |
| O=C(NCC1CCN(c2cc(-c3ccncc3)[nH]n2)CC1)c1ccc2c(c1)OCO2 | 598 |
| Cc1nn(C)cc1C(C)NC(=O)C1CCN(c2cn[nH]c(=O)c2)CC1 (centres undefined) | 568 |
| CN(CC1CCOC1)C(=O)Nc1ccc(Cl)cc1 (centres undefined) | 696 |
| Cc1cc(C)n(-c2cc(SCC(=O)NCc3ccco3)ncn2)n1 | 779 |

| SMILES | RP-LC retention time [s] |
| --- | --- |
| CCN(CC)C(=O)N1CC(n2cc(C(=O)N3CCCC3)nn2)C1 | 646 |
| O=C(COc1ccccc1F)NCC1CCN(S(=O)(=O)C2CC2)CC1 | 712 |
| COc1ccc(-c2noc(N3CCC(C(=O)NC4CC4)CC3)n2)cc1OC | 690 |
| O=C(c1cc(-c2cccnc2)n[nH]1)N1CCN(C(=O)C2CCCC2)CC1 | 594 |
| CCc1nncn1C1CCN(S(=O)(=O)c2ccc(Cl)c(C)c2)CC1 | 716 |
| CCCn1c(CN2CCOCC2)nc2cc(NC(=O)CC(C)C)ccc21 | 633 |
| Cc1cc(Cl)ccc1NC(=O)Cn1c(C)nc2onc(C)c2c1=O | 818 |
| O=C(Nc1nccs1)c1ccccc1OCc1nc(-c2ccccc2)no1 | 953 |
| Cc1ccc(Oc2nccnc2N2CCC(C(=O)NCCCN3CCOCC3)CC2)cc1 | 648 |
| CC(C)(C)c1noc(-c2ccc(-n3cnc(C(=O)N4CCCCC4)c3)nc2)n1 | 742 |
| COc1ccc(C2OC(c3cc(OC)c(OC)c(OC)c3)=NN2C(C)=O)c(OC)c1 (centres undefined) | 885 |
| CCOC(=O)c1c(C)oc2nc(C)nc(NCCN(C)Cc3ccccc3)c12 | 701 |
| O=C(NCCCN1CCOCC1)c1c2c(nc3ccccc13)C(=O)N(C1CCCCC1)C2 | 598 |
| Cn1c(=O)c2cc(C(=O)N3CCN(C(=O)c4ccco4)CC3)sc2n(C)c1=O | 574 |
| COc1ccc(OC)c(-c2[nH]ncc2CN2CC(F)(F)C[C@H]2CN2CCCCCC2)c1 | 578 |
| COc1ccc(NC(=O)C2CCN(S(=O)(=O)c3cc(C(=O)N4CCOCC4)cs3)CC2)cc1 | 721 |
| O=c1c2cc(-c3ccc4c(c3)OCO4)nn2ccn1Cc1nc(-c2ccc(F)c(Cl)c2)no1 | 805 |
| CCn1ccc(C(=O)Nc2cnc(N3CCCCC3)nc2)n1 | 778 |
| Cc1ccc(C(=O)N2CCN(c3nnc4ccccn34)CC2)cc1C | 676 |

Other lines, results leading:

| RP-LC retention time [s] | SMILES |
| --- | --- |
| 706 | COCCN1C(=O)c2ccccc2C(C(=O)Nc2ccc(NC(C)=O)cc2)C12CCCCC2 (centres undefined) |
| 737 | CN(CC(=O)N1CCN(c2ccccc2)CC1)S(=O)(=O)c1ccc2c(c1)CCCC(=O)N2 |
| 638 | Cc1ncn(CC(=O)Nc2ccc(F)cc2)c(=O)c1C |
| 634 | O=C(c1cc(=O)n2c(nc3ccccc32)s1)N1CCN(c2ccccn2)CC1 |
| 825 | O=C(NCc1ccccc1)N1CCN(Cc2nc3cc(-c4ccccc4)ccc3o2)CC1 |
| 749 | O=C(Nc1ccccc1F)C1CC(=O)N(c2ccc3c(c2)CCN3C(=O)C2CC2)C1 (centres undefined) |
| 901 | CCOc1ccc(S(=O)(=O)Nc2ccc3c(c2)CCC(=O)N3CC(C)C)cc1 |
| 733 | CCc1nc2ccccc2n1CC(O)COc1cc(C)cc(C)c1 (centres undefined) |
| 900 | CCOc1ccc(S(=O)(=O)N2C[C@@H]3C[C@H](NC(=O)c4ccccc4)[C@H]2C3)cc1 |
| 687 | Cc1ccc(NC(=O)CC2COc3ccccc3NC2=O)cc1C (centres undefined) |
| 1150 | COc1ccc(NC(=O)C2CCCN(c3nccnc3Sc3ccccc3)C2)cc1Cl (centres undefined) |
| 872 | CCCN(CC(=O)N(Cc1ccco1)CC1CCCO1)C(=O)Cc1ccc(F)cc1 (centres undefined) |
| 756 | CCNC(=O)N1CCc2c([nH]c3ccccc23)C12C(=O)N(C)c1ccccc12 (centres undefined) |
| 603 | CCc1ccc(Nc2nc(C(=O)NCCc3cnc[nH]3)nc3ccccc23)cc1 |
| 822 | COc1cc(NC(=O)N2CCC3(CC2)N=C(c2cccc(F)c2)C(=O)N3)cc(OC)c1 |
| 776 | O=C(c1ccc(Br)o1)N1CCN(Cc2nnnn2-c2ccc(F)cc2)CC1 |
| 918 | O=C(Nc1ccc(F)cc1F)c1c(O)c2cccnc2n(-c2cccc(F)c2)c1=O |
| 984 | CN(CCc1noc(COc2ccc(Cl)cc2)n1)C(=O)Nc1cccc(F)c1 |
| 930 | O=c1c(=O)n(Cc2nc(-c3cccc(F)c3)no2)ccn1Cc1ccc(Cl)cc1 |
| 1060 | Cc1ccc(C)c(NC(=O)N2c3ccccc3CC2c2nc(C3CC3)no2)c1 (centres undefined) |
| 660 | COCCCNC(=O)c1ccc(-n2nc(C)c3c2CCCC3=O)cc1 |
| 1100 | CCc1ccc(NC(=O)Cn2cnc3c(sc4nc(-c5ccccc5)ccc43)c2=O)cc1 |
| 596 | CCOC(=O)CNC(=O)NCc1ccc2ncccc2c1 |
| 878 | CCN1C(=O)COc2ccc(-c3noc(C4CC(=O)N(c5ccc(C)cc5)C4)n3)cc21 (centres undefined) |
| 688 | Cn1cc(CC(=O)NCc2ccc(F)cc2F)c2cccnc21 |
| 918 | Cn1ncc2c3ccccc3n(CCCC(=O)N3CCN(c4ccccc4)CC3)c2c1=O |
| 766 | CCOC(=O)Cn1c(C2CC(=O)N(c3ccc(F)cc3)C2)nc2ccccc21 (centres undefined) |
| 786 | Cc1ccc(CC(=O)NC(CC(C)C)C(=O)Nc2nc3ccccc3[nH]2)cc1 (centres undefined) |

Reference: the METLIN SMRT retention time set (Domingo-Almenara et al. 2019)
